Experimental data reported in patent publication US11866430B2, “Naphthyridinone compounds useful as T cell activators” (priority 2018, dated 2024).
Like-named read-outs stand apart in the source and are kept apart here.

Experiments:
[1] = tested on: OT-1 antigen-specific CD8+ T cells with MC38 tumor cells; experiment: Murine Cytotoxic T Lymphocyte Assay (IFN-γ); format: cell-based, mouse; details: Mus musculus, MC-38, read-out: msCTL INF-γ IC50, murine CTL IFN-γ (table title reads INF-γ Whole Blood Normalized Agonist EC50)
human DGKα = human DGKα (Homo sapiens (Human), UniProt P23743); experiment: DGKα LIPGLO assay (extruded liposome substrate); format: biochemical
Outline: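 Human full-length DGKα, His-tagged and produced in Sf9 cells, assayed at 20 nM (4× stock) on extruded liposomes of PS, 0.25 mM DAG and 2.75 mM PC, preincubated 10 min. Reaction started with 300 μM ATP (stock) and ran 1 h in MOPS pH 7.5/MgCl2/CaCl2/DTT buffer.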

[2] = tested on: Jurkat AP1-luciferase Reporter; experiment: DGK AP1-Reporter Assay; format: cell-based
Outline: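 Jurkat cells carrying a lentiviral AP1-luciferase reporter received 30 nl compound per well for 20 min at 37 °C and 5% CO2. They were then stimulated for 6 h with anti-CD3 solution at 0.4 μg/mL; reference wells received 4 μg/mL and unstimulated wells medium only. Readout was Steady-Glo luciferase luminescence (RLU).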

[3] = Homo sapiens, Jurkat, read-out: API-Luciferase Reporter IC50, Table 3
[4] = Homo sapiens, Jurkat, read-out: DGKAP1 Lucif Reporter IC50, Table 4
[5] = read-out: DGKAP1 Lucif Reporter IC50, Table 4

human DGKα, sequence (P23743 other isoform, or with tags, fused parts or gaps): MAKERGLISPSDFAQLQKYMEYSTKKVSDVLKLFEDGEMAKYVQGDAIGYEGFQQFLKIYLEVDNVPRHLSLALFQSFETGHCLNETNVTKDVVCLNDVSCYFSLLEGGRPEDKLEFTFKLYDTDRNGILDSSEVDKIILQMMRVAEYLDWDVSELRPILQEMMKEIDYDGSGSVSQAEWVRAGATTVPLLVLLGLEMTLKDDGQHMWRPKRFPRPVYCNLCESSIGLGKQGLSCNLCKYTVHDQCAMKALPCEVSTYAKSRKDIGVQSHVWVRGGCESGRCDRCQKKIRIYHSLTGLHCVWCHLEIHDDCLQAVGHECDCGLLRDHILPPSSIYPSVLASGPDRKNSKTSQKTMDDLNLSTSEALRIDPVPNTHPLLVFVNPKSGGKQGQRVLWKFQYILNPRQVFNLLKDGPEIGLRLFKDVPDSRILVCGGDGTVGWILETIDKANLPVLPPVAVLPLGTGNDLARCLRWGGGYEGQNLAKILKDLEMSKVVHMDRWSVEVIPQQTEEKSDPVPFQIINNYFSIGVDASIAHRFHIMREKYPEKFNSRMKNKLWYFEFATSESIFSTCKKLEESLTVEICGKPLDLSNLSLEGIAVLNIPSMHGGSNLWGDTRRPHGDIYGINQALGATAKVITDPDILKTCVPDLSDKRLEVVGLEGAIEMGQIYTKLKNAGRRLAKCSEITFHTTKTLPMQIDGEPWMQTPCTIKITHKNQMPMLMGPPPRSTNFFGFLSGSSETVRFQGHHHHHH

`C#CCn1c(=O)c([N+](=O)[O-])c(N2CCN(C(CC)c3ccc(F)cc3)CC2)c2nc(C#N)ccc21` (single isomer, unassigned) [Example 141, 8-{4-[1-(4-fluorophenyl)propyl]piperazin-1-yl}-7-nitro-6-oxo-5-(prop-2-yn-1-yl)-5,6-dihydro-1,5-naphthyridine-2-carbonitrile] was tested, and the IC50 [1] was 0.29 µM, the IC50 (human DGKα) was 0.58 µM and the IC50 [2, 3] was 0.24 µM.
Compound `C#CCn1c(=O)c([N+](=O)[O-])c(N2CCN(C(c3ccc(F)cc3)C3CC3)CC2)c2nc(C#N)ccc21` (single isomer, unassigned) [Example 143, 8-(4-(cyclopropyl(4-fluorophenyl)methyl)piperazin-1-yl)-7-nitro-6-oxo-5-(prop-2-yn-1-yl)-5,6-dihydro-1,5-naphthyridine-2-carbonitrile] has an IC50 [1] of 1.41 µM, an IC50 (human DGKα) of 3.4 µM and an IC50 [2, 4] of 1.28 µM.
Compound `Cn1c(=O)c(C#N)c(N2CCN(C(CC(C)(C)C)c3ccc(F)cc3)CC2)c2nc(Cl)ccc21` (single isomer, unassigned) [Example 378, 6-chloro-4-{4-[1-(4-fluorophenyl)-3,3-dimethylbutyl]piperazin-1-yl}-1-methyl-2-oxo-1,2-dihydro-1,5-naphthyridine-3-carbonitrile] has an IC50 [1] of 10 µM, an IC50 (human DGKα) of 2.2 µM and an IC50 [2, 5] of 10 µM.
`Cn1c(=O)c(C#N)c(N2CCN(C(c3ccc(F)cc3)C3CCC3)CC2)c2nc(Cl)ccc21` (single isomer, unassigned) [Example 383, 6-chloro-4-{4-[cyclobutyl(4-fluorophenyl)methyl]piperazin-1-yl}-1-methyl-2-oxo-1,2-dihydro-1,5-naphthyridine-3-carbonitrile] was tested, and the IC50 [1] was 10 µM, the IC50 (human DGKα) was 0.22 µM and the IC50 [2, 5] was 10 µM.
`Cn1c(=O)c([N+](=O)[O-])c(N2CCN(CC(O)c3ccc(F)cc3)CC2)c2nc(C#N)ccc21` (stereo not drawn) [Example 36, 8-{4-[2-(4-fluorophenyl)-2-hydroxyethyl]piperazin-1-yl}-5-methyl-7-nitro-6-oxo-5,6-dihydro-1,5-naphthyridine-2-carbonitrile] was tested, and the IC50 [1] was 10 µM, the IC50 (human DGKα) was 6.8 µM and the IC50 [2, 3] was 1.6 µM.
In the case of `CCCCn1c(=O)c([N+](=O)[O-])c(N2CCN(C(c3ccccc3)c3ccccc3)CC2)c2ncccc21` [Example 177, 4-(4-benzhydrylpiperazin-1-yl)-1-butyl-3-nitro-1,5-naphthyridin-2(1H)-one], the IC50 [1] is reported as 10 µM, the IC50 (human DGKα) is reported as greater than 240 µM and the IC50 [2, 4] is reported as 10 µM.
With `Cc1ccc2c(n1)c(N1CCN(C(C)c3ccc(F)cc3)CC1)c(Br)c(=O)n2C` (stereo not drawn) [Example 224, 3-bromo-4-(4-(1-(4-fluorophenyl)ethyl)piperazin-1-yl)-1,6-dimethyl-1,5-naphthyridin-2(1H)-one] the IC50 [1] was 10 µM, the IC50 (human DGKα) was 0.14 µM and the IC50 [2, 4] was 10 µM.
`Cc1ccc(CN2CCN(c3c(C#N)c(=O)n(C)c4ccc(Br)nc34)CC2)c(O)c1` [Example 372, 6-bromo-4-{4-[(2-hydroxy-4-methylphenyl)methyl]piperazin-1-yl}-1-methyl-2-oxo-1,2-dihydro-1,5-naphthyridine-3-carbonitrile] was tested, and the IC50 [1] was 2.55 µM, the IC50 (human DGKα) was 0.078 µM and the IC50 [2, 3] was 0.14 µM.
For `Cc1ccc(CN2CCN(c3c(C#N)c(=O)n(C)c4ccc(Cl)nc34)CC2)cc1` [Example 386, 6-chloro-1-methyl-4-{4-[(4-methylphenyl)methyl]piperazin-1-yl}-2-oxo-1,2-dihydro-1,5-naphthyridine-3-carbonitrile], the IC50 [1] was 0.59 µM, the IC50 (human DGKα) was 0.26 µM and the IC50 [2, 3] was 0.05 µM.
`Cc1ccc2c(n1)c(N1CCN(Cc3cccc(Cl)c3O)CC1)c(C#N)c(=O)n2C` [Example 389, 4-{4-[(3-chloro-2-hydroxyphenyl)methyl]piperazin-1-yl}-1,6-dimethyl-2-oxo-1,2-dihydro-1,5-naphthyridine-3-carbonitrile] showed an IC50 [1] of 5.05 µM, an IC50 (human DGKα) of 1.4 µM and an IC50 [2, 3] of 0.65 µM.
In the case of `Cc1cccc(CN2CCN(c3c(C#N)c(=O)n(C)c4ccc(Cl)nc34)CC2)c1O` [Example 391, 6-chloro-4-{4-[(2-hydroxy-3-methylphenyl)methyl]piperazin-1-yl}-1-methyl-2-oxo-1,2-dihydro-1,5-naphthyridine-3-carbonitrile], the IC50 [1] is reported as 0.73 µM, the IC50 (human DGKα) is reported as 1.8 µM and the IC50 [2, 3] is reported as 0.07 µM.
With `Cn1c(=O)c([N+](=O)[O-])c(N2CCN(Cc3cccc4ccccc34)CC2)c2nc(C#N)ccc21` [Example 415, 5-methyl-8-{4-[(naphthalen-1-yl)methyl]piperazin-1-yl}-7-nitro-6-oxo-5,6-dihydro-1,5-naphthyridine-2-carbonitrile] the IC50 [1] was 10 µM, the IC50 (human DGKα) was 0.65 µM and the IC50 [2, 4] was 0.42 µM.
Compound `Cc1ccc(CN2CCN(c3c(C#N)c(=O)n(C)c4ccc(Cl)nc34)CC2)c(F)c1` [Example 423, 6-chloro-4-{4-[(2-fluoro-4-methylphenyl)methyl]piperazin-1-yl}-1-methyl-2-oxo-1,2-dihydro-1,5-naphthyridine-3-carbonitrile] has an IC50 [1] of 0.7 µM, an IC50 (human DGKα) of 2.2 µM and an IC50 [2, 3] of 1.88 µM.
Work on `COc1cc(C#N)ccc1CN1CCN(c2c(C#N)c(=O)n(C)c3ccc(Cl)nc23)CC1` [Example 424, 6-chloro-4-{4-[(4-cyano-2-methoxyphenyl)methyl]piperazin-1-yl}-1-methyl-2-oxo-1,2-dihydro-1,5-naphthyridine-3-carbonitrile] yielded an IC50 [1] of 10 µM, an IC50 (human DGKα) of 1.4 µM and an IC50 [2, 3] of 10 µM.
